Structures can show the parent of a compound that is named as a salt. Some results are limits rather than exact numbers.

Sequence of ATM (Q13315 whole entry): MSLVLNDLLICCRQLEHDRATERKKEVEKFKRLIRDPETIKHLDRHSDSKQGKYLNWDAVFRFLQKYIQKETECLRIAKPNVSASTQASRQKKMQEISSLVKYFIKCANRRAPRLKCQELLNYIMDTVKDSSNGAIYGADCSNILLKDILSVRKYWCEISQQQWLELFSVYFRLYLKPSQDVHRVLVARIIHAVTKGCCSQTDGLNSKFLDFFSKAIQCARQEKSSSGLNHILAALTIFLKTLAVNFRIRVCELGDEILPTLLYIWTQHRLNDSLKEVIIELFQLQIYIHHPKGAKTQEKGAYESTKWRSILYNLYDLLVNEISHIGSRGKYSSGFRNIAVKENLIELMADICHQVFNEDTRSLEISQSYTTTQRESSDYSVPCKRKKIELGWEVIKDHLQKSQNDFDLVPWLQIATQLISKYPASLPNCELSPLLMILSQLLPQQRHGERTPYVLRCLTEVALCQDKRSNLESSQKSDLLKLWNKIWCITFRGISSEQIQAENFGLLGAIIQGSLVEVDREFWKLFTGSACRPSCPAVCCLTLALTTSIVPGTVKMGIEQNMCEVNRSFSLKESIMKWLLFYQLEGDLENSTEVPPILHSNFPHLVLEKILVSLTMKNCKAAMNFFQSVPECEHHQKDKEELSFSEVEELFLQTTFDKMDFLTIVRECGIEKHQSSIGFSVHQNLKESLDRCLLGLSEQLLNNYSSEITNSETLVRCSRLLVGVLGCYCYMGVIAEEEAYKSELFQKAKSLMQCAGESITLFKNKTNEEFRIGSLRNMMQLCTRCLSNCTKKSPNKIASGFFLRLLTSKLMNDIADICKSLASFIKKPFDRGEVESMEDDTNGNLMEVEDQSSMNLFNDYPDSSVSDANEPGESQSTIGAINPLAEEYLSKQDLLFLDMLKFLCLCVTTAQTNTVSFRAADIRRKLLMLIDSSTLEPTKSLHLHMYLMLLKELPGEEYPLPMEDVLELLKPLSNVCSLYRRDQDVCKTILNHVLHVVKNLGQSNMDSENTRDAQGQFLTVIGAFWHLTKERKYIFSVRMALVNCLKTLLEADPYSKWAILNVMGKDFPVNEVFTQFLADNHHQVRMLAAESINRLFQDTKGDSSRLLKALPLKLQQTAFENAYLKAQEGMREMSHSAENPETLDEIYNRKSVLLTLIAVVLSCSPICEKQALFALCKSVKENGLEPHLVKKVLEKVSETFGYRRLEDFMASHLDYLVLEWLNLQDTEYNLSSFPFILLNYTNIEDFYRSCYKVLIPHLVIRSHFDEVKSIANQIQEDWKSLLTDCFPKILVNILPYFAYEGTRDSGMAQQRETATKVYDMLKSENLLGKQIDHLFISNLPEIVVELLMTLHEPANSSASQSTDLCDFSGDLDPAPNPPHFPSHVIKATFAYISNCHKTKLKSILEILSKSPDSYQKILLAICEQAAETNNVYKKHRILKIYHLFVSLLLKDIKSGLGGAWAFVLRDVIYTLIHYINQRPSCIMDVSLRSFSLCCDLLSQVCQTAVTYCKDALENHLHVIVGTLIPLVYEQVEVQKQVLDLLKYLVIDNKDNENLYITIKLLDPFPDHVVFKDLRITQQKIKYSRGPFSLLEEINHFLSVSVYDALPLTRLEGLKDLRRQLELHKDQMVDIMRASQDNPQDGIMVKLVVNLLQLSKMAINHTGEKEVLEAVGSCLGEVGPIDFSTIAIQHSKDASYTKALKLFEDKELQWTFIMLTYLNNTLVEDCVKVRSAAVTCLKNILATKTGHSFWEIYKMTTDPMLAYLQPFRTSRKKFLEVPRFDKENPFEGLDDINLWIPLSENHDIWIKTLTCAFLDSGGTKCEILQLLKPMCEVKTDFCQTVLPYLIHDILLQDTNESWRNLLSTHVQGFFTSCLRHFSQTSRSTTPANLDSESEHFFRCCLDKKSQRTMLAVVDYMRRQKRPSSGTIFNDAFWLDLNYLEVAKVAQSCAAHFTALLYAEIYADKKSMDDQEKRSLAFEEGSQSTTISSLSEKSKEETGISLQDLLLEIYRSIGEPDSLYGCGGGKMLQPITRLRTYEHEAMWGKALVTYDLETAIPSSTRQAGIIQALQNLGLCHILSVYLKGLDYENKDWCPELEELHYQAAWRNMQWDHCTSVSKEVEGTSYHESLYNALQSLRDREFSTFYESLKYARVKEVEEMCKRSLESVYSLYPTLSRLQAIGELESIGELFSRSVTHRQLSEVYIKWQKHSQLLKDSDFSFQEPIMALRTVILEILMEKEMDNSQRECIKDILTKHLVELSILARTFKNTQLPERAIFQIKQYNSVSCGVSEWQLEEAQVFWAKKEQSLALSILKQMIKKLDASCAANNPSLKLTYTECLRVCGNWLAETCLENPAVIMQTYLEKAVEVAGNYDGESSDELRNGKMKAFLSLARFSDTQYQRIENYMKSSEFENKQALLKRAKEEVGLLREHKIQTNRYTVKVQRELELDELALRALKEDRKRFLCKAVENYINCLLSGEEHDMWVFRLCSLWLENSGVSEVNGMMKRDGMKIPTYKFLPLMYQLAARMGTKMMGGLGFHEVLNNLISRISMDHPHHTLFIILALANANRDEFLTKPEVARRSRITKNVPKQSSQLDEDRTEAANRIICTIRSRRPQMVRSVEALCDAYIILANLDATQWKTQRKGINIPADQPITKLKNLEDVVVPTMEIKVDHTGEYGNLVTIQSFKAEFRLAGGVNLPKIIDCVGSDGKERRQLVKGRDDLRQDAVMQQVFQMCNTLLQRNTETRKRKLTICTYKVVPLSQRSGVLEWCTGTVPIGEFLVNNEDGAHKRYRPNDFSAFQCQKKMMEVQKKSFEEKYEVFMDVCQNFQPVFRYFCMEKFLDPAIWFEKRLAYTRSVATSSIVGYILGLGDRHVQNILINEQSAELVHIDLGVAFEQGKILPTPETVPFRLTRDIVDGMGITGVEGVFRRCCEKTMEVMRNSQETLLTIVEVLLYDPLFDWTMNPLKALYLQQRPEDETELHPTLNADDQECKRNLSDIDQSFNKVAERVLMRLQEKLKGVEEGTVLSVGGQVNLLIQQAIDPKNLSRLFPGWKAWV

One assay concerns the target ATM (Homo sapiens (Human), UniProt Q13315). Kind of assay: ATM in Cell Western Assay (pKAP1 in etoposide-treated MCF-7 cells). Type of assay: cell-based. The conditions noted are these: MCF-7 cells, etoposide 100 μM, 1 hr, pKAP1 readout. As for the experimental part:
Assay of Compounds ATM and DNA-PK Inhibition
ATM in Cell Western Assay:
Next day, add corresponding concentration of compounds using pin tool (Echo 550), the final top concentration is 1 μM, 3-fold series dilution, total 10 doses. Then add etoposide (Sigma, #E1383) to a final concentration of 100 μM. Incubate at 37° C. for 1 hr. Fix cells by adding 25 μL of fixing solution (8% paraformaldehyde) for 20 minutes at ambient temperature. Permeabilize cells for 5 washes with 1×PBS (phosphate buffered saline) containing 0.1% Triton X-100; each wash is for 5 minutes. […] The next day, wash the plate 5 times with 1×PBST (1×PBS containing 0.1% Tween-20). […] Wash the cells for 5 times with 1×PBST (1×PBS containing 0.1% Tween-20) at ambient temperature, using gentle shaking in the dark. After the last wash
remove wash solution, turn plate upside down onto a thin paper towel and centrifuge at 1000 rpm for 1 min to absorb all wash buffer. Clean the bottom of plate with moist lint free paper. Scan plate immediately using ODYSSEY CLx (LI-COR) for the best results.
For `CN1C(=O)C2(CC2)c2c1cnc1ccc(-c3cncnc3)cc21` [Example 51, 3′-Methyl-8′-(pyrimidin-5-yl)spiro[cyclopropane-1,1′-pyrrolo [2,3-c]quinolin]-2′(3′-H)-one], the IC50 (as a rule, the concentration at which inhibition is half-maximal) is > 100 nM.

For the compound `CN1C(=O)C2(CCC2)c2c1cnc1ccc(-c3cnc(OCCCO)c(NS(C)(=O)=O)c3)cc21` [Example 254, N-(2-(3-Hydroxypropoxy)-5-(3′-methyl-2′-oxo-2′,3′-dihydrospiro[cyclobutane-1,1′-pyrrolo[2,3-c]quinolin]-8′-yl)pyridin-3-yl)methanesulfonamide], the 50% inhibitory concentration (IC50) was > 100 nM.

Take `CN1C(=O)C(C)(c2ccncc2)c2c1cnc1ccc(-c3cnc(Cl)c(NS(=O)(=O)c4ccccc4)c3)cc21` (centres unmarked) [Example 23, N-(2-Chloro-5-(1,3-dimethyl-2-oxo-1-(pyridin-4-yl)-2′,3′-dihydro-1H-pyrrolo[2,3-c]quinolin-8-yl)pyridin-3-yl)benzenesulfonamide]: the IC50 was > 100 nM. On the same count and under the same terms, under `CCN(C)C1CN(c2ncc(-c3cc4c5c(cnc4cc3F)N(C)C(=O)C53CCC3)cc2NS(C)(=O)=O)C1` [Example 313, N-(2-(3-(Ethyl(methyl)amino)azetidin-1-yl)-5-(7′-fluoro-3′-methyl-2′-oxo-2′,3′-dihydrospiro[cyclobutane-1,1′-pyrrolo[2,3-c]quinolin]-8′-yl)pyridin-3-yl)methanesulfonamide hydrochloride] stands 1 to 100 nM.

`CCN1C(=O)C2(CCC2)c2c1cnc1ccc(-c3cnc(OCCNC)c(NS(C)(=O)=O)c3)cc21` [Example 308, N-(5-(3′-Ethyl-2′-oxo-2′,3′-dihydrospiro[cyclobutane-1,1′-pyrrolo[2,3-c]quinolin]-8′-yl)-2-(2-(methylamino)ethoxy)pyridin-3-yl) methanesulfonamide hydrochloride] had an IC50 of 1 to 100 nM. The same measure, in the same setting: under `CN(C)CCOCc1ncc(-c2ccc3ncc4c(c3c2)C2(CCC2)C(=O)N4C)cc1NS(C)(=O)=O` [Example 265, N-(2-((2-(Dimethylamino)ethoxy)methyl)-5-(3′-methyl-2′-oxo-2′,3′-dihydrospiro [cyclobutane-1,1′-pyrrolo[2,3-c]quinolin]-8′-yl)pyridin-3-yl)methanesulfonamide] stands > 100 nM; under `CN1C(=O)C2(CCC2)c2c1cnc1ccc(-c3cnc(N4CCS(=O)(=O)CC4)c(NS(=O)(=O)c4ccccc4)c3)cc21` [Example 135, N-(2-(1,1-Dioxidothiomorpholino)-5-(3′-methyl-2′-oxo-2′,3′-dihydrospiro[cyclobulane-1,1′-pyrrolo[2,3-c]quinolin]-8′-yl)pyridin-3-yl)benzenesulfonamide hydrochloride], > 100 nM. Regarding `COc1ncc(-c2ccc3ncc4c(c3c2)C2(CCC2)C(=O)N4C)cc1S(=N)(=O)c1ccccc1` (racemic) [Example 151, rac-8′-(6-Methoxy-5-(phenylsulfonimidoyl)pyridin-3-yl)-3′-methylspiro[cyclobutane-1,1′-pyrrolo[2,3-c]quinolin]-2′(3′H)-one], the IC50 was > 100 nM. Still for that read-out and setting: under `CN(C)CCCOc1ncc(-c2ccc3ncc4c(c3c2)C2(CCC2)C(=O)N4C)cc1S(=O)(=O)N(C)C` [Example 234, 2-(3-(Dimethylamino)propoxy)-N,N-dimethyl-5-(3′-methyl-2′-oxo-2′,3′-dihydrospiro[cyclobutane-1,1′-pyrrolo[2,3-c]quinolin]-8′-yl)pyridine-3-sulfonamide] stands 1 to 100 nM.

Staying with this assay, now noted: pKAP1 in etoposide-treated MCF-7 cells.
For the compound `CC(C)NCCOc1ncc(-c2cc3c4c(cnc3cn2)N(C)C(=O)C42CCC2)cc1NS(C)(=O)=O` [Example 562, N-(2-(2-(Isopropylamino)ethoxy)-5-(3′-methyl-2′-oxo-2′,3′-dihydrospiro [cyclobutane-1,1′-pyrrolo[2,3-c] [1,7]naphthyridin]-8′-yl)pyridin-3-yl)methanesulfonamide], the IC50 is > 100 nM. On to `CCCCN1CC2(C1)C(=O)N(C)c1cnc3cc(F)c(-c4cnc(OCCNC(C)C)c(NS(C)(=O)=O)c4)cc3c12` [Example 489, N-(5-(1-butyl-7′-fluoro-3′-methyl-2′-oxo-2′,3′-dihydrospiro[azetidine-3,1′-pyrrolo[2,3-c]quinolin]-8′-yl)-2-(2-(isopropylamino)ethoxy)pyridin-3-yl)methanesulfonamide], for which the IC50 was 1 to 100 nM. Still for that read-out and setting: the figure for `CN1C(=O)C2(CCC2)c2c1cnc1ccc(-c3cnc(N4CC5CC(C4)N5)c(NS(C)(=O)=O)c3)cc21` [Example 360, N-(2-(3,6-Diazabicyclo[3.1.1]heptan-3-yl)-5-(3′-methyl-2′-oxo-2′,3′-dihydrospiro[cyclobutane-1,1′-pyrrolo[2,3-c]quinolin]-8′-yl)pyridin-3-yl) methanesulfonamide formate] is > 100 nM; for `CC(C)NCCOc1ncc(-c2cc3c4c(cnc3cc2F)N(C)C(=O)C42CCC2)cc1NS(=O)(=O)C(F)F` [Example 368, 1,1-Difluoro-N-(5-(7′-fluoro-3′-methyl-2′-oxo-2′,3′-dihydrospiro[cyclobutane-1,1′-pyrrolo[2,3-c]quinolin]-8′-yl)-2-(2-(isopropylamino)ethoxy)pyridin-3-yl)methanesulfonamide] it is > 100 nM; for `CN1C(=O)C2(CCC2)c2c1cnc1cc(F)c(-c3cnc(OCCNCC(F)F)c(NS(C)(=O)=O)c3)cc21` [Example 379, N-(2-(2-((2,2-Difluoroethyl)amino)ethoxy)-5-(7fluoro-3′-methyl-2′-oxo-2′,3′-dihydrospiro[cyclobutane-1,1′-pyrrole[2,3-c]quinolin]-8′-yl)pyridin-3-yl) methanesulfonamide] it is > 100 nM. Same read-out and setting: under `COC(=O)c1cc(-c2ccc3ncc4c(c3c2)C2(CCC2)C(=O)N4C)cc(NS(C)(=O)=O)c1OCCCN(C)C` [Example 559, Methyl 2-(3-(dimethylamino)propoxy)-5-(3′-methyl-2′-oxo-2′,3′-dihydrospiro[cyclobutane-1,1′-pyrrolo[2,3-c]quinolin]-8′-yl)-3-(methylsulfonamido)benzoate] stands > 100 nM; under `CN1C(=O)C2(CCC2)c2c1cnc1cc(F)c(-c3cnc(OCCNCCF)c(NS(C)(=O)=O)c3)cc21` [Example 380, N-(5-(7′-Fluoro-3′-methyl-2′-oxo-2′,3′-dihydrospiro [cyclobutane-1,1′-pyrrolo[2.3-c]quinolin]-8′-yl)-2-(2-((2-fluoroethyl)amino)ethoxy)pyridin-3-yl) methanesulfonamide hydrochloride], 1 to 100 nM. For `CC(C)NCCOc1ncc(-c2cc3c4c(cnc3cc2F)N(C)C(=O)C42CN(C(=O)N(C)C)C2)cc1NS(C)(=O)=O` [Example 518, 7′-Fluoro-8′-(6-(2-(isopropylamino)ethoxy)-5-(methylsulfonamido)pyridin-3-yl)-N,N,3′-trimethyl-2′-oxo-2′,3′-dihydrospiro[azetidine-3,1′-pyrrolo[2,3-c]quinoline]-1-carboxamide], the IC50 is > 100 nM. Same read-out and setting: under `CC(C)NCCOc1ncc(-c2cc3c4c(cnc3cc2F)N(C)C(=O)C42CN([C@@H](C)c3ccccc3)C2)cc1NS(C)(=O)=O` [Example 493, (S)-N-(5-(7′-Fluoro-3′-methyl-2′-oxo-1-(1-phenylethyl)-2′,3′-dihydrospiro [azetidine-3,1′-pyrrolo[2,3-c]quinolin]-8′-yl)-2-(2-(isopropylamino)ethoxy)pyridin-3-yl)methanesulfonamide] stands 1 to 100 nM; under `CC(C)NCCOc1ncc(-c2cc3c(cc2F)ncc2c3[C@]3(C[C@H](CN(C)C)C3)C(=O)N2C)cc1NS(C)(=O)=O` [Example 452, cis-N-(5-(3-((Dimethylamino)methyl)-7′-fluoro-3′-methyl-2′-oxo-2′,3′-dihydrospiro[cyclobutane-1,1′-pyrrolo[2,3-c]quinolin]-8′-yl)-2-(2-(isopropylamino)ethoxy)pyridin-3-yl)methanesulfonamide], 1 to 100 nM; under `CC(C)NCCOc1ncc(-c2cc3c4c(cnc3cc2F)N(C)C(=O)C42CC(F)C2)cc1NS(C)(=O)=O` (stereo not drawn) [Example 560, cis-N-(5-(3,7′-Difluoro-3′-methyl-2′-oxo-2′,3′-dihydrospiro[cyclobutane-1,1′-pyrrolo[2,3-c]quinolin]-8′-yl)-2-(2-(isopropylamino)ethoxy)pyridin-3-yl)methanesulfonamide], 1 to 100 nM.

For `CN1CC2(C1)CN(c1ncc(-c3ccc4ncc5c(c4c3)C3(CCC3)C(=O)N5C)cc1NS(C)(=O)=O)C2` [Example 345, N-(5-(3′-Methyl-2′-oxo-2′,3′-dihydrospiro[cyclobutane-1,1′-pyrrolo[2,3-c]quinolin]-8′-yl)-2-(6-methyl-2,6-diazaspiro[3.3]heptan-2-yl)pyridin-3-yl)methanesulfonamide formate], the half-maximal inhibitory concentration (IC50) was in the range of 1 to 100 nM. Still for that read-out and setting: the figure for `CC(C)NCCOc1ncc(-c2cc3c(cc2F)ncc2c3[C@]3(C[C@@H](Oc4ccccc4)C3)C(=O)N2C)cc1NS(=O)(=O)N(C)C` [Example 403, trans-S′-{5-[(Dimethylsulfamoyl)amino]-6-{2-[(propan-2-ylamino]ethoxy}pyridine-3-yl}-7′-fluoro-3′-methyl-3-phenoxy-2′,3′-dihydrospiro[cyclobutane-1,1′-pyrrolo[2,3-c]quinoline]-2′-one hydrochloride] is > 100 nM. Same read-out and setting: under `CC(C)NCCOc1ncc(-c2cc3c4c(cnc3cc2F)N(C)C(=O)C42CN(c3cccc(OC(F)(F)F)c3)C2)cc1NS(C)(=O)=O` [Example 542, N-(5-(7′-Fluoro-3′-methyl-2′-oxo-1-(3-(trifluoromethoxy)phenyl)-2′,3′-dihydrospiro[azetidine-3,1′-pyrrolo[2,3-c]quinolin]-8′-yl)-2-(2-(isopropylamino)ethoxy)pyridin-3-yl)methanesulfonamide] stands 1 to 100 nM.

Values taken from patent US12187742B2 (XRAD Therapeutics, Inc., priority 2018, dated 2025).
